Tested on: 12 single or co-culture in vitro tissue models of primary cells
Experiment: Culture/co-culture cell model panel, extracellular biomarkers (DiscoveRx)
Assay type: cell-based, human
[1] = /Mphg Huvec+macrophages, 1.00E0 nM
[2] = /Mphg Huvec+macrophages, 1.00E1 nM
[3] = /Mphg Huvec+macrophages, 1.00E2 nM
[4] = /Mphg Huvec+macrophages, 1.00E3 nM
[5] = /Mphg Huvec+macrophages, 1.00E4 nM

Cn1ncc2cc(-c3cnc(N)c(Cl)c3N3CCC4(CCNC4=O)CC3)ccc21 [CMPD 3]
CCL2/MCP-1 (/HDFNo, 1.00E4 nM): 0.044
CD54/ICAM-1 (/HDFNo, 1.00E4 nM): -0.029
CD106/VCAM-1 (/HDFNo, 1.00E4 nM): 0.030
Collagen I (/HDFNo, 1.00E4 nM): 0.106
Collagen III (/HDFNo, 1.00E4 nM): 0.143
CCL2/MCP-1 [1]: 0.039
CCL3/MIP-1alpha [1]: 0.008
CD40 [1]: 0.007
CD69 [1]: 0.028
CD106/VCAM-1 [1]: 0.039
CXCL8/IL-8 [1]: 0.039
IL-1alpha [1]: 0.034
M-CSF [1]: -0.015
SRB [1]: -0.00253
SRB-Mphg [1]: 0.009
sIL-10 [1]: 0.013
CCL2/MCP-1 [2]: -0.0006
CCL3/MIP-1alpha [2]: -0.011
CD40 [2]: -0.026
CD69 [2]: 0.018
CD106/VCAM-1 [2]: 0.030
CXCL8/IL-8 [2]: -0.00563
IL-1alpha [2]: 0.012
M-CSF [2]: -0.035
SRB [2]: -0.012
SRB-Mphg [2]: 0.002
sIL-10 [2]: 0.075
CCL2/MCP-1 [3]: -0.061
CCL3/MIP-1alpha [3]: -0.020
CD40 [3]: 0.012
CD69 [3]: 0.043
CD106/VCAM-1 [3]: 0.019
CXCL8/IL-8 [3]: -0.007
IL-1alpha [3]: 0.025
M-CSF [3]: -0.036
SRB [3]: -0.017
SRB-Mphg [3]: 0.012
sIL-10 [3]: -8.75e-5
CCL2/MCP-1 [4]: -0.073
CCL3/MIP-1alpha [4]: -0.030
CD40 [4]: -0.015
CD69 [4]: 0.039
CD106/VCAM-1 [4]: -0.014
CXCL8/IL-8 [4]: -0.034
IL-1alpha [4]: -0.038
M-CSF [4]: -0.070
SRB [4]: -0.017
SRB-Mphg [4]: -0.00429
sIL-10 [4]: -0.159
CCL2/MCP-1 [5]: -0.116
CCL3/MIP-1alpha [5]: 0.039
CD40 [5]: -0.005
CD69 [5]: 0.023
CD106/VCAM-1 [5]: 0.022
CXCL8/IL-8 [5]: 0.007
IL-1alpha [5]: -0.039
M-CSF [5]: 0.009
SRB [5]: -0.059
SRB-Mphg [5]: -0.013
sIL-10 [5]: -0.238
CCL2/MCP-1 (/TH2, 1.00E0 nM): 0.045
CCL26/Eotaxin-3 (/TH2, 1.00E0 nM): -0.045
CD38 (/TH2, 1.00E0 nM): 0.012
CD40 (/TH2, 1.00E0 nM): -0.010
CD69 (/TH2, 1.00E0 nM): -0.0036
CD87/uPAR (/TH2, 1.00E0 nM): -0.045
CD106/VCAM-1 (/TH2, 1.00E0 nM): 0.030
CXCL8/IL-8 (/TH2, 1.00E0 nM): 0.048
CXCL9/MIG (/TH2, 1.00E0 nM): 0.020
Collagen IV (/TH2, 1.00E0 nM): 0.013
PBMC Cytotoxicity (/TH2, 1.00E0 nM): -0.00216
SRB (/TH2, 1.00E0 nM): -0.019
sIL-17A (/TH2, 1.00E0 nM): 0.036
sIL-17F (/TH2, 1.00E0 nM): -0.022
CCL2/MCP-1 (/TH2, 1.00E1 nM): 0.002
CCL26/Eotaxin-3 (/TH2, 1.00E1 nM): -0.124
CD38 (/TH2, 1.00E1 nM): -0.011
CD40 (/TH2, 1.00E1 nM): -0.078
CD69 (/TH2, 1.00E1 nM): -0.011
CD87/uPAR (/TH2, 1.00E1 nM): -0.094
CD106/VCAM-1 (/TH2, 1.00E1 nM): 0.034
CXCL8/IL-8 (/TH2, 1.00E1 nM): -0.056
CXCL9/MIG (/TH2, 1.00E1 nM): 0.00749
Collagen IV (/TH2, 1.00E1 nM): 0.029
PBMC Cytotoxicity (/TH2, 1.00E1 nM): -0.00148
SRB (/TH2, 1.00E1 nM): -0.057
sIL-17A (/TH2, 1.00E1 nM): 0.095
sIL-17F (/TH2, 1.00E1 nM): -0.033
CCL2/MCP-1 (/TH2, 1.00E2 nM): -0.036
CCL26/Eotaxin-3 (/TH2, 1.00E2 nM): -0.132
CD38 (/TH2, 1.00E2 nM): -0.00367
CD40 (/TH2, 1.00E2 nM): -0.095
CD69 (/TH2, 1.00E2 nM): -0.007
CD87/uPAR (/TH2, 1.00E2 nM): -0.133
CD106/VCAM-1 (/TH2, 1.00E2 nM): 0.023
CXCL8/IL-8 (/TH2, 1.00E2 nM): -0.038
CXCL9/MIG (/TH2, 1.00E2 nM): 0.008
Collagen IV (/TH2, 1.00E2 nM): 0.005
PBMC Cytotoxicity (/TH2, 1.00E2 nM): -0.011
SRB (/TH2, 1.00E2 nM): -0.080
sIL-17A (/TH2, 1.00E2 nM): 0.189
sIL-17F (/TH2, 1.00E2 nM): 0.137
CCL2/MCP-1 (/TH2, 1.00E3 nM): -0.046
CCL26/Eotaxin-3 (/TH2, 1.00E3 nM): -0.134
CD38 (/TH2, 1.00E3 nM): -0.012
CD40 (/TH2, 1.00E3 nM): -0.080
CD69 (/TH2, 1.00E3 nM): -0.021
CD87/uPAR (/TH2, 1.00E3 nM): -0.141
CD106/VCAM-1 (/TH2, 1.00E3 nM): 0.028
CXCL8/IL-8 (/TH2, 1.00E3 nM): -0.057
CXCL9/MIG (/TH2, 1.00E3 nM): 0.006
Collagen IV (/TH2, 1.00E3 nM): 0.010
PBMC Cytotoxicity (/TH2, 1.00E3 nM): -0.023
SRB (/TH2, 1.00E3 nM): -0.067
sIL-17A (/TH2, 1.00E3 nM): 0.134
sIL-17F (/TH2, 1.00E3 nM): -0.079
CCL2/MCP-1 (/TH2, 1.00E4 nM): -0.053
CCL26/Eotaxin-3 (/TH2, 1.00E4 nM): -0.136
CD38 (/TH2, 1.00E4 nM): -0.016
CD40 (/TH2, 1.00E4 nM): -0.061
CD69 (/TH2, 1.00E4 nM): -0.044
CD87/uPAR (/TH2, 1.00E4 nM): -0.146
CD106/VCAM-1 (/TH2, 1.00E4 nM): 0.003
CXCL8/IL-8 (/TH2, 1.00E4 nM): -0.053
CXCL9/MIG (/TH2, 1.00E4 nM): 0.006
Collagen IV (/TH2, 1.00E4 nM): 0.012
PBMC Cytotoxicity (/TH2, 1.00E4 nM): -0.036
SRB (/TH2, 1.00E4 nM): -0.126
sIL-17A (/TH2, 1.00E4 nM): 0.054
sIL-17F (/TH2, 1.00E4 nM): -0.082
CCL26/Eotaxin-3 (BENo, 1.00E0 nM): 0.067
CD54/ICAM-1 (BENo, 1.00E0 nM): 0.017
CD87/uPAR (BENo, 1.00E0 nM): 0.077
CXCL8/IL-8 (BENo, 1.00E0 nM): 0.016
CXCL9/MIG (BENo, 1.00E0 nM): 0.068
CXCL10/IP-10 (BENo, 1.00E0 nM): 0.115
CXCL11/I-TAC (BENo, 1.00E0 nM): 0.039
EGFR (BENo, 1.00E0 nM): 0.00071
HLA-DR (BENo, 1.00E0 nM): 0.048
IL-1alpha (BENo, 1.00E0 nM): 0.048
Keratin 8/18 (BENo, 1.00E0 nM): 0.051
MMP-1 (BENo, 1.00E0 nM): 0.028
MMP-9 (BENo, 1.00E0 nM): 0.043
PAI-I (BENo, 1.00E0 nM): 0.010
SRB (BENo, 1.00E0 nM): 0.002
tPA (BENo, 1.00E0 nM): 0.014
uPA (BENo, 1.00E0 nM): 0.036
CCL26/Eotaxin-3 (BENo, 1.00E1 nM): -0.035
CD54/ICAM-1 (BENo, 1.00E1 nM): -0.015
CD87/uPAR (BENo, 1.00E1 nM): 0.086
CXCL8/IL-8 (BENo, 1.00E1 nM): -0.015
CXCL9/MIG (BENo, 1.00E1 nM): 0.025
CXCL10/IP-10 (BENo, 1.00E1 nM): 0.020
CXCL11/I-TAC (BENo, 1.00E1 nM): 0.032
EGFR (BENo, 1.00E1 nM): -0.005
HLA-DR (BENo, 1.00E1 nM): 0.084
IL-1alpha (BENo, 1.00E1 nM): 0.021
Keratin 8/18 (BENo, 1.00E1 nM): 0.032
MMP-1 (BENo, 1.00E1 nM): 0.022
MMP-9 (BENo, 1.00E1 nM): 0.026
PAI-I (BENo, 1.00E1 nM): 0.003
SRB (BENo, 1.00E1 nM): 0.000675
tPA (BENo, 1.00E1 nM): -0.00178
uPA (BENo, 1.00E1 nM): 0.034
CCL26/Eotaxin-3 (BENo, 1.00E2 nM): 0.029
CD54/ICAM-1 (BENo, 1.00E2 nM): -0.086
CD87/uPAR (BENo, 1.00E2 nM): 0.074
CXCL8/IL-8 (BENo, 1.00E2 nM): 0.050
CXCL9/MIG (BENo, 1.00E2 nM): 0.027
CXCL10/IP-10 (BENo, 1.00E2 nM): 0.029
CXCL11/I-TAC (BENo, 1.00E2 nM): 0.038
EGFR (BENo, 1.00E2 nM): -0.028
HLA-DR (BENo, 1.00E2 nM): 0.002
IL-1alpha (BENo, 1.00E2 nM): 0.024
Keratin 8/18 (BENo, 1.00E2 nM): 0.019
MMP-1 (BENo, 1.00E2 nM): -0.044
MMP-9 (BENo, 1.00E2 nM): -0.012
PAI-I (BENo, 1.00E2 nM): -0.079
SRB (BENo, 1.00E2 nM): -0.00126
tPA (BENo, 1.00E2 nM): -0.018
uPA (BENo, 1.00E2 nM): 0.039
CCL26/Eotaxin-3 (BENo, 1.00E3 nM): 0.016
CD54/ICAM-1 (BENo, 1.00E3 nM): -0.027
CD87/uPAR (BENo, 1.00E3 nM): 0.042
CXCL8/IL-8 (BENo, 1.00E3 nM): -0.000244
CXCL9/MIG (BENo, 1.00E3 nM): 0.034
CXCL10/IP-10 (BENo, 1.00E3 nM): 0.016
CXCL11/I-TAC (BENo, 1.00E3 nM): 0.033
EGFR (BENo, 1.00E3 nM): 0.028
HLA-DR (BENo, 1.00E3 nM): 0.049
IL-1alpha (BENo, 1.00E3 nM): 0.018
Keratin 8/18 (BENo, 1.00E3 nM): 0.022
MMP-1 (BENo, 1.00E3 nM): -0.000325
MMP-9 (BENo, 1.00E3 nM): -0.016
PAI-I (BENo, 1.00E3 nM): -0.078

Reference: PMC5224920, “Assessing the mechanism and therapeutic potential of modulators of the human Mediator complex-associated protein kinases” (eLife, 2016)
